System: gypsophila stem explants
Assay: Transient transformation (GUS expression) of stem explants from GA3-pretreated plants after cocultivation with Agrobacterium tumefaciens EHA105/pKIWI105
Type: in vivo, Gypsophila paniculata L.
Description: Unrooted cuttings of gypsophila (Gypsophila paniculata L.) cultivars Arbel, Pestival, Flamingo, Yokinko, New Hope and P2000 were obtained from Danziger “DAN” Flower Farm (Moshav Mishmar Hashiva, Israel). Stem cuttings with six or eight filly mature leaves (not counting the apical leaves which were not fully expanded), harvested from greenhouse-grown plants and stored for up to 2 weeks at 4° C., were used to prepare stem explants (Zuker A, Ahroni A, Shejtman H and Vainstein A (1997). Adventitious shoot regeneration from leaf explants of Gypsophila paniculata L. Plant Cell Reports, 16: 775-778; Ahroni A, Zuker A, Rozen Y, Shejtman H and Vainstein A (1997). An efficient method for adventitious shoot regeneration from stem-segment explants of gwpsophila. Plant Cell Tiss Org Cult 49: 101-106). Twenty days prior to harvesting of cuttings (unless otherwise i5 indicated), mother plants were sprayed once with approximately 4 ml. of 1 mM GA3.
Cuttings were rinsed with 70% ethanol, then sterilized for 10 min in 1.5% (w/v) sodium hypochlorite and rinsed three times for 10 min each in sterile water. The leaves and shoot apices of the cutting were discarded and the three primary nodes were immersed for 10 min in a bacterial (A. tumefaciens EHA105/pKIWI105) suspension (OD550=1). Inoculated stem explants were then blotted dry and cultured in an upright position on the cocultivation medium for a period of up to 5 days. Following cocultivation, stem explants were histochemically evaluated for transient GUS expression by counting the number of GUS-expressing stem explants, as well as the number of blue spots per explant under a stereo-microscope.
A histochemical assay of GUS activity was performed according to Stomp (1992). Tissue samples were incubated for a few hours to overnight at 37° C. in a 0.1% (w/v) X-Gluc (5-bromo-4-chloro-3-indolyl β-D-glucuronic acid sodium salt, Biosynth Inc., Staad, Switzerland) solution containing 0.1 M sodium phosphate buffer (pH 7.0), 10 mM EDTA, and 0.1% (w/v) Triton X-100. When necessary, green tissues were bleached, after staining, by immersion in 50% (v/v) EtOH for a few hours, followed by several washes with 70% EtOH. It should be noted that no background GUS activity was detectable in any of the analyzed tissues of control plants.

C=C1C[C@]23C[C@@]1(O)CC[C@H]2[C@@]12C=C[C@H](O)[C@@](C)(C(=O)O1)[C@H]2[C@@H]3C(=O)O [GA3]
increase in frequency of transient transformation events (number of blue spots per explant) (cv. Arbel, explants from 20 day versus 10 day GA3 treated plants): ca. 3 times | percentage of GUS-expressing stem explants out of total number of explants inoculated (cv. Arbel, explants from plants 20 days after GA3 treatment (1 mM spray), 5-day cocultivation with EHA105/pKIWI105): 90% | percentage of inoculated explants expressing GUS (cvs. Pestival and Flamingo, GA3-treated plants, cocultivation with EHA105/pKIWI105, dark then light, 5 days): ca. 75% | transient transformation (qualitative) (explants from cuttings of plants treated with GA3, versus no transient transformation without GA3): efficient and highly reproducible transient transformation was obtained

From patent US20030088888A1, “Method of plant transformation” (priority 2001, published 2003)
